# Results as given in patent US9695155B2, “Herbicidal substituted pyrimidinyloxy benzene compounds” (E. I. DU PONT DE NEMOURS AND COMPANY, priority 2013, dated 2017).
# Experiments:
# [1] = system: pigweed; assay: Test C preemergence; type: in vivo, Amaranthus retroflexus; details: Amaranthus retroflexus, pre-emergence
# How it was run: (§1)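 Rated visually on 0–100 (100 = complete control) after 13–15 days under glass. Treatments went onto freshly seeded loam/sand soil or onto emerged plants at the 1- to 4-leaf stage, using a surfactant-containing solvent formulation.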
# [2] = system: rice; assay: Test B flooded paddy test; type: in vivo, Oryza sativa; details: Oryza sativa; Flood, 250 g ai/ha; 0 to 100 scale where 0 is no effect and 100 is complete control; read-out: Plant response rating, Rice
# How it was run: (§2)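 Post-emergence paddy-water application at the 2-leaf stage, with 3 cm flood kept for the whole test. Response was judged visually relative to controls after 13 to 15 greenhouse days, 0 indicating no effect and 100 complete control.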
# [3] = system: lambsquarters; assay: Test C postemergence; type: in vivo, Chenopodium album
# How it was run: as §1
# [4] = system: yellow nutsedge; assay: Test C preemergence; type: in vivo, Cyperus esculentus; details: Cyperus, pre-emergence
# How it was run: as §1
# [5] = system: blackgrass; assay: Test C postemergence; type: in vivo, Alopecurus myosuroides; details: Alopecurus myosuroides, post-emergence
# How it was run: as §1
# [6] = system: barnyardgrass; assay: Test C postemergence; type: in vivo, Echinochloa crus-galli; details: Echinochloa crus-galli, post-emergence
# How it was run: as §1
# [7] = system: lambsquarters; assay: Test C preemergence; type: in vivo, Chenopodium album; details: Chenopodium album, pre-emergence
# How it was run: as §1
# [8] = system: wheat, winter; assay: Test C preemergence; type: in vivo, Triticum aestivum; details: Triticum aestivum, pre-emergence
# How it was run: as §1
# [9] = system: Italian ryegrass; assay: Test C postemergence; type: in vivo, Lolium multiflorum
# How it was run: as §1
# [10] = system: kochia; assay: Test C postemergence; type: in vivo, Kochia scoparia; details: Bassia scoparia, post-emergence
# How it was run: as §1
# [11] = system: corn; assay: Test A preemergence; type: in vivo, Zea mays
# How it was run: (§3)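 Injury scores run from 0, no effect, to 100, complete control, judged by eye against untreated plants roughly 10 days after treatment. Chemicals carried a surfactant in a non-phytotoxic solvent and went onto loam–sand soil preemergence or onto one- to two-leaf seedlings postemergence.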
# [12] = system: pigweed; assay: Test C postemergence; type: in vivo, Amaranthus retroflexus
# How it was run: as §1
# [13] = system: Heteranthera limosa; assay: Test B flooded paddy test; type: in vivo; details: Heteranthera limosa, Flood, 250 g ai/ha; 0 to 100 scale where 0 is no effect and 100 is complete control; read-out: Plant response rating, Ducksalad
# How it was run: as §2
# [14] = system: soybean; assay: Test C postemergence; type: in vivo, Glycine max
# How it was run: as §1
# [15] = system: morningglory; assay: Test A postemergence; type: in vivo, Ipomoea spp.; details: 0 to 100 scale where 0 is no effect and 100 is complete control
# How it was run: as §3
# [16] = 31 g ai/ha, postemergence, visual rating, scale 0 to 100 (0 no effect, 100 complete control), 13 to 15 days
compound,measurement,setting,value
"FC(F)c1cccc(Oc2ncc(Cl)cn2)c1-n1cc(Br)cn1 [Compound 194, 2-[2-(4-bromo-1H-pyrazol-1-yl)-3-(difluoromethyl)phenoxy]-5-chloropyrimidine]",pest or weed control at 125 g/ha,"[1]; 125 g ai/ha, preemergence, scale 0 (no effect) to 100 (complete control), read-out: Pigweed plant response rating",100%
same,pest or weed control at 250 g/ha,"[1]; 250 g ai/ha, preemergence, scale 0 (no effect) to 100 (complete control), read-out: Pigweed plant response rating",100%
same,pest or weed control at 62 g/ha,"[1]; Preemergence, 62 g ai/ha, scale 0 to 100, 0 no effect, 100 complete control, read-out: Plant response rating, Pigweed",100%
same,plant injury at 250 g/ha,[2],0%
same,Lambsquarters plant response rating,[3]; [16],60
same,pest or weed control at 125 g/ha,"[3]; Chenopodium album, post-emergence, 125 g ai/ha, postemergence, visual rating, scale 0 to 100 (0 no effect, 100 complete control), read-out: Plant response rating, Lambsquarters",90%
same,pest or weed control at 250 g/ha,"[3]; Chenopodium album, post-emergence, 250 g ai/ha, postemergence, read-out: Plant response rating (0 to 100), Lambsquarters",98%
same,pest or weed control at 62 g/ha,"[3]; Chenopodium album, post-emergence, Postemergence, 62 g ai/ha, scale 0 to 100 (0 no effect, 100 complete control), 13 to 15 days, read-out: Plant response rating, Lambsquarters",80%
same,pest or weed control at 125 g/ha,"[4]; 125 g ai/ha, preemergence, scale 0 (no effect) to 100 (complete control), read-out: Nutsedge, Yellow plant response rating",0%
same,pest or weed control at 250 g/ha,"[4]; 250 g ai/ha, preemergence, scale 0 (no effect) to 100 (complete control), read-out: Nutsedge, Yellow plant response rating",25%
same,pest or weed control at 62 g/ha,"[4]; Preemergence, 62 g ai/ha, scale 0 to 100, 0 no effect, 100 complete control, read-out: Plant response rating, Nutsedge, Yellow",0%
same,pest or weed control at 31 g/ha,"[5]; 31 g ai/ha, postemergence, visual rating, scale 0 to 100 (0 no effect, 100 complete control), 13 to 15 days, read-out: Blackgrass plant response rating",15%
same,pest or weed control at 125 g/ha,"[5]; 125 g ai/ha, postemergence, visual rating, scale 0 to 100 (0 no effect, 100 complete control), read-out: Plant response rating, Blackgrass",30%
same,pest or weed control at 250 g/ha,"[5]; 250 g ai/ha, postemergence, read-out: Plant response rating (0 to 100), Blackgrass",35%
same,pest or weed control at 62 g/ha,"[5]; Postemergence, 62 g ai/ha, scale 0 to 100 (0 no effect, 100 complete control), 13 to 15 days, read-out: Plant response rating, Blackgrass",20%
same,pest or weed control at 31 g/ha,"[6]; 31 g ai/ha, postemergence, visual rating, scale 0 to 100 (0 no effect, 100 complete control), 13 to 15 days, read-out: Barnyardgrass plant response rating",5%
same,pest or weed control at 125 g/ha,"[6]; 125 g ai/ha, postemergence, visual rating, scale 0 to 100 (0 no effect, 100 complete control), read-out: Plant response rating, Barnyardgrass",15%
same,pest or weed control at 250 g/ha,"[6]; 250 g ai/ha, postemergence, read-out: Plant response rating (0 to 100), Barnyardgrass",55%
same,pest or weed control at 62 g/ha,"[6]; Postemergence, 62 g ai/ha, scale 0 to 100 (0 no effect, 100 complete control), read-out: Plant response rating, Barnyardgrass",5%
same,pest or weed control at 125 g/ha,"[7]; 125 g ai/ha, preemergence, scale 0 (no effect) to 100 (complete control), read-out: Lambsquarters plant response rating",100%
same,pest or weed control at 250 g/ha,"[7]; 250 g ai/ha, preemergence, scale 0 (no effect) to 100 (complete control), read-out: Lambsquarters plant response rating",100%
same,pest or weed control at 62 g/ha,"[7]; Preemergence, 62 g ai/ha, scale 0 to 100, 0 no effect, 100 complete control, read-out: Plant response rating, Lambsquarters",100%
same,plant injury at 125 g/ha,"[8]; 125 g ai/ha, preemergence, scale 0 (no effect) to 100 (complete control), read-out: Wheat plant response rating",0%
same,plant injury at 250 g/ha,"[8]; 250 g ai/ha, preemergence, scale 0 (no effect) to 100 (complete control), read-out: Wheat plant response rating",35%
same,plant injury at 62 g/ha,"[8]; Preemergence, 62 g ai/ha, scale 0 to 100, 0 no effect, 100 complete control, read-out: Plant response rating, Wheat",0%
same,"Ryegrass, Italian plant response rating",[9]; [16],0
same,pest or weed control at 125 g/ha,"[9]; Lolium multiflorum, post-emergence, 125 g ai/ha, postemergence, visual rating, scale 0 to 100 (0 no effect, 100 complete control), read-out: Plant response rating, Ryegrass, Italian",0%
same,pest or weed control at 250 g/ha,"[9]; Lolium multiflorum, post-emergence, 250 g ai/ha, postemergence, read-out: Plant response rating (0 to 100), Ryegrass, Italian",15%
same,pest or weed control at 62 g/ha,"[9]; Lolium multiflorum, post-emergence, Postemergence, 62 g ai/ha, scale 0 to 100 (0 no effect, 100 complete control), 13 to 15 days, read-out: Plant response rating, Ryegrass, Italian",0%
same,pest or weed control at 31 g/ha,"[10]; 31 g ai/ha, postemergence, visual rating, scale 0 to 100 (0 no effect, 100 complete control), 13 to 15 days, read-out: Kochia plant response rating",90%
same,pest or weed control at 125 g/ha,"[10]; 125 g ai/ha, postemergence, visual rating, scale 0 to 100 (0 no effect, 100 complete control), read-out: Plant response rating, Kochia",90%
same,pest or weed control at 250 g/ha,"[10]; 250 g ai/ha, postemergence, read-out: Plant response rating (0 to 100), Kochia",95%
same,pest or weed control at 62 g/ha,"[10]; Postemergence, 62 g ai/ha, scale 0 to 100 (0 no effect, 100 complete control), 13 to 15 days, read-out: Plant response rating, Kochia",90%
same,Corn plant response rating (0 to 100 scale),[11]; 125 g ai/ha,30
same,plant injury at 500 g/ha,"[11]; Zea mays, pre-emergence, 240 h, 500 g ai/ha, 0 to 100 scale where 0 is no effect and 100 is complete control, read-out: Corn plant response rating",50%
same,Pigweed plant response rating,[12]; [16],75
same,pest or weed control at 125 g/ha,"[12]; Amaranthus retroflexus, post-emergence, 125 g ai/ha, postemergence, visual rating, scale 0 to 100 (0 no effect, 100 complete control), read-out: Plant response rating, Pigweed",90%
same,pest or weed control at 250 g/ha,"[12]; Amaranthus retroflexus, post-emergence, 250 g ai/ha, postemergence, read-out: Plant response rating (0 to 100), Pigweed",95%
same,pest or weed control at 62 g/ha,"[12]; Amaranthus retroflexus, post-emergence, Postemergence, 62 g ai/ha, scale 0 to 100 (0 no effect, 100 complete control), 13 to 15 days, read-out: Plant response rating, Pigweed",75%
same,pest or weed control at 250 g/ha,[13],98%
same,Soybean plant response rating,[14]; [16],30
same,"Soybean plant response rating (crop injury, 0-100 scale) at 125 g/ha","[14]; Glycine max, post-emergence, 125 g ai/ha, postemergence, visual rating, scale 0 to 100 (0 no effect, 100 complete control), read-out: Plant response rating, Soybean",75%
same,"Soybean plant response rating (crop injury, 0-100 scale) at 250 g/ha","[14]; Glycine max, post-emergence, 250 g ai/ha, postemergence",85%
same,"Soybean plant response rating (crop injury, 0-100 scale) at 62 g/ha","[14]; Glycine max, post-emergence, Postemergence, 62 g ai/ha, scale 0 to 100 (0 no effect, 100 complete control), 13 to 15 days",50%
same,Morningglory plant response rating,[15]; 125 g ai/ha,90
same,pest or weed control at 500 g/ha,"[15]; Ipomoea, post-emergence, 240 h, 500 g ai/ha, read-out: Plant response rating, Morningglory",100%
